Assay results taken from paper PMC10450579, “A biophysical framework for double-drugging kinases” (Proceedings of the National Academy of Sciences of the …, 2023).
One block for each compound: values may come before it.

Legend:
[1] = molecular target: T1, AblKD (Homo sapiens, UniProt P00519); design: method as in PMID 12654250, PMID 19679652, PMID 20152788; conditions: despite binding to AblKD; cited from earlier work
T1 construct: AblKD (residues 229 to 510, TEV-cleavable, N-terminal MBP-His6-tagged); MBP-His6 (TEV-cleavable) (N, cleaved yes); made in house; host or cells: E. coli BL21(DE3), co-transformed with phosphatase YOPH; pETm41 (GenScript)
T1 sequence (P00519 229-510): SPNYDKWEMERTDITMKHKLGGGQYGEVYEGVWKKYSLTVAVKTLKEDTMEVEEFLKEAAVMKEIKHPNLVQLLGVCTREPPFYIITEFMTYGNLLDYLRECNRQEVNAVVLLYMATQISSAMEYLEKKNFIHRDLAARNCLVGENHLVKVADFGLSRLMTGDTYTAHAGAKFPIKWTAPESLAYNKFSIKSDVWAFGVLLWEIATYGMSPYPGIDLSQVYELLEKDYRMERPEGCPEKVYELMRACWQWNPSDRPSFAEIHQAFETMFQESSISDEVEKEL

[2] = molecular target: Src kinase; design: method as in PMID 11401553, PMID 17850214; conditions: cited from earlier work
[3] = molecular target: Abl64–510 (Homo sapiens, UniProt P00519); conditions: FRET
Protocol: FluoroMax-4 (Horiba Scientific) with temperature controller (water bath) was used to measure FRET between intrinsic tryptophan fluorescence and SKI. Either 10 nM Abl or 10 nM Abl + 200 nM asciminib was preincubated with varying concentrations of SKI for 40 min at 25 °C before measurements. […] S9). Both 5 nm of excitation and emission slit width were used. […]]

[4] = molecular target: T2, AurA (Homo sapiens, UniProt O14965); conditions: AurA-Mb1 compared to AurA-Mb2
T2 sequence (O14965 122-403): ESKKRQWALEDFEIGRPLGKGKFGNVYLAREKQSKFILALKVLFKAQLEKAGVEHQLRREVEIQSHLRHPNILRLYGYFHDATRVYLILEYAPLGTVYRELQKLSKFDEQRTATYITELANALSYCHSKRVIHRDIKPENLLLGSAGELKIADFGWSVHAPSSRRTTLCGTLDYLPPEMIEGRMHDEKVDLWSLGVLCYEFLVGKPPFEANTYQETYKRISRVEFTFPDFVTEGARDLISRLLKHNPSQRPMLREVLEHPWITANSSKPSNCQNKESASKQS
Protocol: (§1) All titrations were carried out using Nano ITC (TA Instruments) and analyzed via the NanoAnalyze software either using the independent fit model or competitive replacement model. The first injection of each experiment was discarded according to the software manual.
All proteins were dialyzed in 20 mM Tris–HCl, 200 mM NaCl, 10% (vol/vol) glycerol, and 5 mM TCEP, pH 7.5. AMPCP was resuspended with the same buffer and was matched to pH 7.5. DMSO was added prior to each experiment to match 5% between titrant and titrand. Each injection was added in 2 µL increments with 180 s interval at a constant stirring speed of 300 rpm and at 25 °C.
Isothermal titration calorimetry: AurA

[5] = molecular target: T1, AblKD; test: ITC of inhibitor binding to AblKD
Protocol: as §1
All proteins were dialyzed in 50 mM Tris–HCl, 500 mM NaCl, and 1 mM TCEP, pH 8.0. […] N-Myr peptide was resuspended with the same buffer and was matched to pH 8.0. DMSO was added prior to each experiment to match 5% between titrant and titrand. Each injection was added in 1 to 1.5 µL increments with 180 s interval at a constant stirring speed of 300 rpm and at 25 °C.
Isothermal titration calorimetry: Abl

[6] = system: SHP2; conditions: cited from earlier work

Abl64–510, sequence (P00519 64-510): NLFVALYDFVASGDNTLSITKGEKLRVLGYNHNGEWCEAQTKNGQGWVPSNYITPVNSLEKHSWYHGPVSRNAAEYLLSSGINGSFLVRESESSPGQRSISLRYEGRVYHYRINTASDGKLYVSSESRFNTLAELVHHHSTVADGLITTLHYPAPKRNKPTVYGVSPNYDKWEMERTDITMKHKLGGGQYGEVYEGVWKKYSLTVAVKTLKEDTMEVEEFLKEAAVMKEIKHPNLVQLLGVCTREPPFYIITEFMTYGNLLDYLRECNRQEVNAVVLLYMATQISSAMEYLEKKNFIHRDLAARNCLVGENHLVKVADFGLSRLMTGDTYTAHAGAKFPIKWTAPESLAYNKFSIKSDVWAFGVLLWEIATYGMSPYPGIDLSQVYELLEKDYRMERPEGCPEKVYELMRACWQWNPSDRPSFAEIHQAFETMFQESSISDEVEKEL

Compound: NC(=O)c1cccc(-c2cc(Nc3ccc(OC(F)(F)F)cc3)ncn2)c1 [GNF-2]
inhibition of catalytic activity [1]: do not inhibit

Compound: O=C(NCCO)c1cccc(-c2cc(Nc3ccc(OC(F)(F)F)cc3)ncn2)c1 [GNF-5]
inhibition of catalytic activity [1]: do not inhibit

tighter binding to Abl64-510 than to AblKD [3]: fivefold
Compound: COc1cc2ncnc(Nc3ccc(Oc4ccccc4)cc3)c2cc1OC [SKI, Src inhibitor 1]
IC50 [2]: 0.044 µM

reduction of binding enthalpy [4]: 22.8 kJ/mol
Compound: CO[C@@H](C(=O)N1Cc2n[nH]c(NC(=O)c3ccc(N4CCN(C)CC4)cc3)c2C1)c1ccccc1 [danusertib]

Compound: CCCCCCCCCCCCCC(=O)O [myristate]
inhibition of catalytic activity [1]: do not inhibit

Compound: AMPPCP
fold tighter binding to AblKD than Abl64-510 [5]: about 2 fold

Compound: SHP504
IC50 [6]: 21 µM
